Source: US10842807B2, “Methods of treating neurodegenerative disorders comprising DNA methyltransferase inhibitors” (Washington University, priority 2016, dated 2020)

B1: BDNF: recombinant BDNF protein added in the culture medium (protein, UniProt P23560 19-247, looked up)
Neurotrophic factor BDNF …: APMKEANIRGQGGLAYPGVRTHGTLESVNGPKAGSRGLTSLADTFEHVIEELLDEDQKVRPNEENNKDADLYTSRVMLSSQVPLEPPLLFLLEEYKNYLDAANMSMRVRRHSDPARRGELSVCDSISEWVTAADKKTAVDMSGGTVTVLEKVPVSKGQLKQYFYETKCNPMGYTKEGCRGIDKRHWNSQCRTTQSYVRALTMDSKKRIGWRFIRIDTSCVCTLTIKRGR

What was measured:
Assay type in all cases: cell-based, mouse
[1] = test system: Htt-72Q-expressing primary cortical neurons; assay: MTS cell viability assay in Htt-expressing primary cortical neurons; settings: for viability of Htt-72Q-expressing neurons (MTS assay): MTS at DIV 14; for viability of mutant Htt-expressing neurons (MTS assay), validation of screen hits: 0.02, 0.2, 2 μM vs Htt-72Q (0 μM)
Method: Mouse primary cortical and striatal neurons from embryonic day (E) 15.5 Swiss Webster mouse fetuses (Taconic) were first plated in the minimal essential medium (MEM) containing 10% FBS, 0.45% glucose, 1 mM sodium pyruvate, 2 mM glutamine, 20 U/ml penicillin and 20 μg/ml streptomycin, for 3 h and then maintained in serum-free Neurobasal medium (Life Technologies) containing NeuroCult™ SM1 neuronal supplement ([…] Technologies), 0.5 mM glutamine and 25 μM glutamate for the first 3 d in a humidified incubator (37° C. in 5% CO2). Half of the medium was replaced with Neurobasal medium with SM1 and 0.5 mM glutamine every 3 days. Primary cortical neurons plated on 96-well flat clear bottom black plates (Corning #3904) at 4×10^4 cells/well were infected with Htt exon1 expression lentivirus (Htt-25Q or Htt-72Q) or control empty vector lentivirus at 5 days in vitro (DIV 5). Primary striatal neurons plated on 96-well plates at 1×10^5 cells/well were infected with Htt exon1 expression lentivirus at DIV 4. Viral copy number was adjusted for transduction of neurons on the basis of titer measured using the Lenti-X qRT-PCR titration kit (Clontech), and equal numbers of viral particles of Htt-25Q and Htt-72Q expressing lentiviruses were used for transduction. For the experiments to test effects of DNMT inhibitors, neurons were treated with inhibitors six hours after Htt lentiviral infection. One half of the media was changed every 3 days with media containing new drug. In knockdown experiments in Htt-expressing neurons, primary cortical neurons were cotransduced with Htt-expressing lentivirus and Dnmt shRNA or control shRNA lentivirus at DIV 5. pLKO.1-TRC1-luciferase (Luci) and pLKO.1-TRC2-LacZ were used as control for RNAi with pLKO.1-TRC1-Dnmt3a and pLKO.1-TRC2-Dnmt1, respectively. Lentiviral particles were prepared by transfecting 293LE cells with the lentiviral plasmid of interest along with packaging plasmid psPAX2 and envelope plasmid pCMV-SVG as described previously^86. Four days after transfection, viruses in the conditioned media were collected and purified using Lenti-X Concentrator (Clontech). Primary cortical neurons from BACHD mouse embryos (E15.5) were individually plated into separate wells and treated at DIV 4 with decitabine or vehicle for 3.5 days.

[2] = test system: Htt-72Q-expressing primary cortical neurons; assay: Neurofilament (NF) immunofluorescence, neurite degeneration in cortical neurons; settings: fixed at DIV 14; vs. Htt-72Q (0 μM)
Method: (§1) Mouse primary cortical and striatal neurons from embryonic day (E) 15.5 Swiss Webster mouse fetuses (Taconic) were first plated in the minimal essential medium (MEM) containing 10% FBS, 0.45% glucose, 1 mM sodium pyruvate, 2 mM glutamine, 20 U/ml penicillin and 20 μg/ml streptomycin, for 3 h and then maintained in serum-free Neurobasal medium (Life Technologies) containing NeuroCult™ SM1 neuronal supplement ([…] Technologies), 0.5 mM glutamine and 25 μM glutamate for the first 3 d in a humidified incubator (37° C. in 5% CO2). Half of the medium was replaced with Neurobasal medium with SM1 and 0.5 mM glutamine every 3 days. Primary cortical neurons plated on 96-well flat clear bottom black plates (Corning #3904) at 4×10^4 cells/well were infected with Htt exon1 expression lentivirus (Htt-25Q or Htt-72Q) or control empty vector lentivirus at 5 days in vitro (DIV 5). Primary striatal neurons plated on 96-well plates at 1×10^5 cells/well were infected with Htt exon1 expression lentivirus at DIV 4. Viral copy number was adjusted for transduction of neurons on the basis of titer measured using the Lenti-X qRT-PCR titration kit (Clontech), and equal numbers of viral particles of Htt-25Q and Htt-72Q expressing lentiviruses were used for transduction. […]
(§2) For the measurement of neurofilament (NF) immunofluorescence intensity, cortical and striatal neurons cultured in a 96-well plate were fixed in 4% paraformaldehyde (PFA) in PBS for 20 min nine and seven days after Htt lentiviral infection, respectively, permeabilized with 0.1% Triton X-100 in PBS for 15 min at room temperature, and subjected to indirect immunofluorescence with anti-NF (2H3) primary antibody and Alexa Fluor 568-conjugated goat anti-mouse IgG secondary antibody (Life Technologies). […] Following image background subtraction, the NF immunofluorescence intensity was quantified using an ImageJ-based macro. Image capture and quantification of Htt (EM48) immunofluorescence intensity were performed as described for those of NF. […] About 300 nuclei from three random fields in a well were counted. […]

[3] = test system: Htt-72Q-expressing primary striatal neurons; assay: Neurofilament (NF) immunofluorescence, neurite degeneration in striatal neurons; settings: DIV 4 striatal neurons transduced, fixed seven days later; vs. Htt-72Q (0 μM)
Method: as §1, §2

[4] = test system: Htt-72Q-expressing primary cortical neurons; assay: Epigenetic drug library screen, resazurin (Alamar Blue) assay; settings: 0.02, 0.2, 2 μM added at DIV 6, resazurin at DIV 14; hits validated by MTS
Method: As epigenetic gene regulation is a cell-type specific mechanism, we used a physiologically relevant, post-mitotic cortical neuron culture system for this screen. In this system, lentivirus-mediated expression of the exon 1-encoded N-terminal fragment of mutant Htt (Htt-72Q with a 72 glutamine repeat), but not wild-type (WT) Htt (Htt-25Q), induces neurotoxicity^38. […] In the drug screen, the viability of Htt-expressing cortical neurons was determined by the resazurin (Alamar Blue) assay, a quantitative measurement of mitochondrial metabolic activity, which correlates with cell viability.
Epigenetic drug screen was performed using a primary cortical neuron model of HD with a drug library composed of 84 compounds (Table 1), among which 80 drugs are purchased from Cayman Chemical (Epigenetic Screening Library Item No 11076) and four drugs, SGC0946, EPZ5676, EPZ6438, and GSK126, were obtained from Xcessbio Biosciences Inc. Mouse primary cortical neurons were plated on 96-well flat clear bottom black plates (Corning #3904). WT or mutant Htt exon1 fragment (Htt-25Q or Htt-72Q)-expressing lentiviruses are infected at DIV 5 as described above. The 84 compounds were added to the media at DIV 6 one day after Htt lentiviral infection with three different doses (0.02, 0.2, 2 μM) for each compound at triplicates. DMSO was used as control. Media containing compounds or DMSO were changed every three days to maintain the compounds' activity. At DIV 14, the viability of neurons was determined by resazurin (Alamar blue) assay, a quantitative measurement of mitochondrial metabolic activity. The screen was fully automated and performed in the High-Throughput Screening Center in Washington University School of Medicine. Any possible plate effects were determined using control plates treated with DMSO and used for normalization. Screen hits were validated by MTS assay.

| Molecule | outcome in epigenetic drug screen (84 compounds) [4] | viability of mutant Htt-expressing neurons (MTS assay), validation of screen hits [1] | further results |
| --- | --- | --- | --- |
| Nc1ncn([C@@H]2O[C@H](CO)[C@@H](O)[C@H]2O)c(=O)n1 [5-azacytidine] | – | – | viability of Htt-72Q-expressing neurons (MTS assay) ([1]; DIV 5 cortical neurons transduced with Htt lentivirus, treated with drug or DMSO (=0 μM), vs. Htt-72Q (0 μM)): no significant difference in survival; Htt-72Q-induced neurite degeneration (NF immunofluorescence intensity), cortical neurons [2]: no significant difference in NF immunofluorescence intensity; mutant Htt-induced neurite degeneration (NF immunofluorescence intensity), striatal neurons [3]: no significant difference in NF immunofluorescence intensity |
| CNCc1ccc(-c2[nH]c3cc(F)cc4c3c2CCNC4=O)cc1 [AG-014699] | another screen hit | no significant difference in survival | – |
| CC(=O)Nc1ccc(NC(=S)NC(=O)c2ccc(C(C)(C)C)cc2)cc1 [Tenovin-1] | one of the top three positive compounds | did not significantly increase the viability of mutant Htt-expressing neurons | – |
| B1 | – | – | viability of Htt-72Q-expressing neurons (MTS assay) ([1]; cultured with recombinant BDNF 50 ng/ml, vs. Htt-72Q with vehicle): increased the viability of Htt-72Q-expressing neurons |
